Reference: patent US11746103B2, “ALK-5 inhibitors and uses thereof” (Sumitomo Pharma Oncology, Inc., priority 2020, dated 2023)
Where two headings read alike, the source gives them in different places. One block for each compound: values may come before it.

Experiments:
ALK-5 = ALK-5 (Homo sapiens (Human), UniProt P36897); test: LanthaScreen Eu Kinase Binding Assay, ALK-5; settings: for IC50: read-out: Kinase Inhibition: ALK5 IC50
Protocol: Activity determinations and selectivity were conducted by Thermo Fisher Scientific “SelectScreen™ Biochemical Kinase Profiling Service” using their “LanthaScreen™ Eu Kinase Binding Assay Screening” (www.thermofisher.com/selectscreen). Binding of an Alexa Fluor™ conjugate or “tracer” to a kinase is detected by addition of a Eu-labeled anti-tag antibody. Binding of the tracer and antibody to a kinase results in a high degree of FRET, whereas displacement of the tracer with a kinase inhibitor results in a loss of FRET. This assay is carried out by mixing the compound tested with the reagents and reading, no development step is required. Life Technologies' Kinase Tracers are based on ATP-competitive kinase inhibitors, making them suitable for detection of any compounds that bind to the ATP site. Inhibitors that bind the ATP site include both Type I kinase inhibitors, which bind solely to the ATP site, and Type II inhibitors (e.g., Gleevec®/Imatinib, Sorafenib, BIRB-796), which bind to both the ATP site and a second site often referred to as the allosteric site. […] For 10 point titrations, 3-fold serial dilutions are conducted from the starting concentration (see Table 2 below). [table] All Kinase/Antibody Mixtures are diluted to a 2× working concentration in the specified kinase buffer. The 4× AlexaFluor labeled Tracer is prepared in Kinase Buffer. Bar-coded, low volume, white 384-well plate (Greiner Cat. #784207) […] 2. 3.84 μL—Kinase Buffer […] 4. 4.0 μL—4× Tracer 5. 30-second plate shake 6. 60-minute incubation at room temperature 7. […] The LanthaScreen Eu Kinase Binding Assay data is analyzed using the equations in Table 3 for each set of data points. [table] Data generated were plotted using the graphing software XLfit from IDBS. The dose response curve is curve fit to model number 205.

[1] = test system: TGF-beta induced SMAD signaling; test: RDSR (RD SMAD reporter) Cellular Reporter Assay; type: cell-based; settings: Homo sapiens, 200 pg/ml rhTGF-beta1, 24 h
From the text: TGF-β signaling is triggered when the activated TGF-β homodimer binds to the TGF-β receptor 2, which in turn leads to the recruitment and phosphorylation of TGF-β receptor 1 (ALK5). Activated TGF-β receptor 1 phosphorylates the signal transduction molecules SMAD2 and SMAD3. These bind to common mediator SMAD4 and translocate to the nucleus where they bind to short conserved DNA sequences called the SMAD binding element and induce the transcription of various target genes. […] Certain example compounds were also or alternatively assayed using the RDSR Cellular Reporter Assay. Overview and Design: The RD SMAD reporter (RDSR) cell line was generated by stabily integrating the SMAD cellular reporter plasmid (Promega, pGL4.48[luc2P/SBE/Hygro]) into the human rhabdomyosarcoma cell line RD (ATCC, CCL-136). Once SMAD signaling is triggered, with, for example, the addition of TGF-β 1, receptor activated SMADs bind the SMAD binding elements (SBEs) leading to the expression of intracellular luciferase. To determine the potency of compounds at inhibiting TGF-beta induced SMAD signaling, the RDSR reporter system was utilized. The rhabdomyosarcoma line RD (ATCC, CCL-136) was transfected with a SMAD reporter vector (Promega, E3671) and a polyclonal stable cell line was selected using hygromycin B. The transfected vector contains three copies of a SMAD-binding element (SBE) that drive transcription of the luciferase reporter gene luc2P (Photinus pyralis). luc2P is a synthetically-derived luciferase sequence with humanized codon optimization that is designed for high expression and reduced anomalous transcription. The luc2P gene contains hPEST, a protein destabilization sequence, which allows luc2P protein levels to respond more quickly than those of luc2 to induction of transcription. The intracellular luciferase is quantified by the addition of equal volume (100 μl) of ONE-GLO substrate (Promega, E6120) and read within ten minutes on the Envision plate reader. The stable RDSR cell line was tested by evaluating the response to human TGF-β1 (R&D Systems, 7754-BH-005) as well as human myostatin (R&D Systems, 788-G8-010/CF) in a concentration dependent manner after twenty-four hours of stimulation. […] For compound evaluation, the tool drugs Galunisertib and Vactosertib were included as positive controls. The tool drugs and the compounds of the invention being tested were all incubated with cells for one hour at 37° C. before stimulation with 200 pg/ml rhTGF-beta1 for twenty-four hours. The activity of the reporter was determined with the addition of ONE-GLO (Promega) substrate and luminescence counts collected on the Envision plate reader (Perkin Elmer). […] The activity of compounds of the invention as determined using this method are reported in the third column of Table 1, below.

[2] = test system: phospho-SMAD2 (Ser 465/467) in A549 xenograft; test: A549 xenograft study, tumor phospho SMAD2; type: in vivo, mouse; settings: for phospho SMAD2 levels in tumor (normalized to GAPDH): 10, 50, 75, 100 mg/Kg; for inhibition at 10 mg/kg / inhibition at 50 mg/kg / inhibition at 75 mg/kg / inhibition at 100 mg/kg: Mus musculus, A549, oral gavage, 3 hours after administration, read-out: Percent of p-SMAD2 inhibition compared to vehicle control
From the text: To test compounds for in vivo on-target activity (ALK5/TGF-βR1 inhibition), a study was completed using an A549 murine xenograft model. This model was utilized since an ALK5 inhibitor is expected to reduce the amount of the key TGF-β signaling molecule phosphoSMAD2 in the A549 xenograft cells. The TGF-β mediated phosphorylation in A549 cells takes place at amino acid residue four hundred and sixty-five and four hundred and sixty-seven (both are serine residues).
Eight-week old, female athymic nude mice (Charles River) were injected with approximately four million A549 cells (ATCC, CCL-185). The cells employed were harvested and resuspended in plain RPMI media (no phenol red added) and matrigel (Fisher Scientific) at a one to one ratio. Injection comprised a two-hundred microliter sample injected into the right hind flank of each mouse. Resulting tumors were measured every three days by caliper and as tumors reached an average of one hundred and thirty millimeters cubed, mice were randomized in groups of three.
All compounds were resuspended in 1-Methyl-2-pyrrolidinone (10%) plus 20% Solutol in water (90%). Galunisertib was included as a positive control and given at seventy-five milligram per kilogram to three mice. The drug suspensions were sonicated for fifteen minutes to generate a fine particle suspension before being administered to a subject. Mice were dosed (per oral gavage) at dose levels of one hundred mg/Kg, seventy-five mg/Kg, fifty mg/Kg and ten mg/Kg with three mice in each group. A vehicle control group with three mice was used to establish the baseline level of phospho SMAD2 in the tumor xenograft. Three hours after drug administration, tumors were harvested and stored at negative eighty degrees Celsius until further processing. The phospho SMAD2 levels were determined using the BioPlex Pro anti phospho-SMAD2 (Ser 465/467) beads from Biorad and this signal was normalized using GAPDH levels from each sample (Milliplex MAP GAPDH beads, Sigma/Millipore). Tumors were processed according to kit instructions and beads analyzed using the MagPix instrument by Luminex.

[3] = test system: TGF-β1 mediated alpha-SMA expression in primary human bronchial fibroblasts derived from IPF patients; test: Fibroblast to Myofibroblast Transformation (FMT) assay
Protocol: To test the ability of compounds of the invention to inhibit the TGF-β1 dependent transition of fibroblasts to myofibroblasts in a relevant disease model of IPF, a study was carried out using an FMT assay employing lung fibroblasts from IPF patients. In this model the transition of fibroblasts to myofibroblasts is determined by the expression of the biomarker alpha smooth muscle actin (SMA).
Each drug concentration condition was evaluated in biological duplicates. One hour after compound addition, cells were stimulated with 1.25 ng/ml of TGF-01 and cultured for 72 hours thereafter. At the end of 72 hours cells were fixed using formaldehyde. The results were generated using high content imaging after staining cells using the nuclear stain DAPI as well as evaluation of the expression of alpha SMA. […] As a negative control 0.1% DMSO was used matching the DMSO concentration in treated wells.

[4] = read-out: RD-SMAD reporter activity

ALK-5, sequence (P36897 34-503): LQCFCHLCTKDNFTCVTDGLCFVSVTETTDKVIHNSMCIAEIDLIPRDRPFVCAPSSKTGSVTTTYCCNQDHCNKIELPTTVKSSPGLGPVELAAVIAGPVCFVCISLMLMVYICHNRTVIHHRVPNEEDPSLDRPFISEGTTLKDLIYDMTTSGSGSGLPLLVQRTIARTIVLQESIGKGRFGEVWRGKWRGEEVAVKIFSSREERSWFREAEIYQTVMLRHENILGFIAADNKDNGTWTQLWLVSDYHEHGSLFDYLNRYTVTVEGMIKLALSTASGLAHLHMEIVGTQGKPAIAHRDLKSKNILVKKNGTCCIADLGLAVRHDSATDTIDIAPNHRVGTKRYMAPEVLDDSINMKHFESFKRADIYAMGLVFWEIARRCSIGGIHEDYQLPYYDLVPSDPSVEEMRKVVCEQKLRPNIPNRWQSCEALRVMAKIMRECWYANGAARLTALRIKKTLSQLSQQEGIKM

- Kinase Selectivity: ALK2 IC50/ ALK5 IC50 (ALK-5): (++) (10<ALK2/ALK5<100=[++])
- IC50 (ALK-5): < 0.01 µM
- IC50 [1, 4]: < 0.1 µM
Structure (SMILES): Cc1cccc2c(Nc3ccnc(Nc4ccc(N5CCOCC5)c(F)c4)n3)cnnc12 [EX-13, N2-(3-fluoro-4-morpholino-phenyl)-N4-(8-methylcinnolin-4-yl)-pyrimidine-2,4-diamine]
- phospho SMAD2 levels in tumor (normalized to GAPDH) [2]: reduced the phopho SMAD2 levels (p-SMAD2) in a dose dependent fashion
- inhibition at 10 mg/kg [2]: 37.9%
- inhibition at 50 mg/kg [2]: 76.3%
- inhibition at 75 mg/kg [2]: 76.8%
- inhibition at 100 mg/kg ([2]; 100 mg/Kg): 75.7%

- IC50 ([1]; control compounds, read-out: RDSR reporter activity): ~0.365 µM
Structure (SMILES): Cc1cccc(-c2nn3c(c2-c2ccnc4ccc(C(N)=O)cc24)CCC3)n1 [Galunisertib, reference compound]
- LogM IC50 αSMA ([3]; donor IPF05): −5.7 LogM
- Max PIN (%) ([3]; donor IPF05): 100.8%
- LogM IC50 αSMA ([3]; donor IPF06): −5.9 LogM
- Max PIN (%) ([3]; donor IPF06): 104.4%
- potentially toxic (>25% loss of nuclei) ([3]; donor IPF06): >−5.5
- LogM IC50 αSMA ([3]; donor IPF08): −5.9 LogM
- Max PIN (%) ([3]; donor IPF08): 99.6%

- Kinase Selectivity: ALK2 IC50/ ALK5 IC50 (ALK-5): (++) (10<ALK2/ALK5<100=[++])
- IC50 (ALK-5): < 0.01 µM
- IC50 [1, 4]: < 0.1 µM
Structure (SMILES): Cc1c(F)ccc2c(Nc3ccnc(Nc4ccc(N5CCOCC5)cc4)n3)cnnc12 [EX-41, N4-(7-fluoro-8-methylcinnolin-4-yl)-N2-(4-morpholinophenyl)pyrimidine-2,4-diamine]

- Kinase Selectivity: ALK2 IC50/ ALK5 IC50 (ALK-5): (++) (10<ALK2/ALK5<100=[++])
- IC50 (ALK-5): < 0.01 µM
- IC50 [1, 4]: < 0.1 µM
Structure (SMILES): Cc1cccc2c(Nc3ccnc(Nc4ccc(CN5CCN(C)CC5)cc4)n3)cnnc12 [EX-26, N4-(8-methylcinnolin-4-yl)-N2-(4-((4-methylpiperazin-1-yl)methyl)phenyl)pyrimidine-2,4-diamine]

- Kinase Selectivity: ALK2 IC50/ ALK5 IC50 (ALK-5): (+) (≤10=[+])
- IC50 (ALK-5): < 0.01 µM
- IC50 [1, 4]: 0.1 to 1 µM
Structure (SMILES): Cc1cccc2c(Nc3ccnc(Nc4cc(N5CCOCC5)cc(C(F)(F)F)c4)n3)cnnc12 [EX-39, N4-(8-methylcinnolin-4-yl)-N2-(3-morpholino-5-(trifluoromethyl)phenyl)pyrimidine-2,4-diamine]

More lines, now with the values behind:

Structure (SMILES): COC(=O)c1ccc2c(c1)NC(=O)/C2=C(\Nc1ccc(N(C)C(=O)CN2CCN(C)CC2)cc1)c1ccccc1 [Nintedanib, reference compound]
- LogM IC50 αSMA ([3]; donor IPF05): −6.5 LogM
- Max PIN (%) ([3]; donor IPF05): 92.1%
- LogM IC50 αSMA ([3]; donor IPF06): −6.3 LogM
- Max PIN (%) ([3]; donor IPF06): 86.8%
- LogM IC50 αSMA ([3]; donor IPF08): −6.4 LogM
- Max PIN (%) ([3]; donor IPF08): 88.2%

Structure (SMILES): Cc1cccc2c(Nc3nc(Nc4ccc(N5CCNCC5)cc4)ncc3F)cnnc12 [EX-09, 5-fluoro-N4-(8-methyl-cinnolin-4-yl)-N2-(4-(piperazin-1-yl)phenyl)pyrimidine-2,4-diamine]
- Kinase Selectivity: ALK2 IC50/ ALK5 IC50 (ALK-5): (+) (≤10=[+])
- IC50 (ALK-5): 0.01 to 0.1 µM
- IC50 [1, 4]: 0.1 to 1 µM

Structure (SMILES): Cc1cccc2c(Nc3ccnc(Nc4ccc(N5CCOCC5)c(Cl)c4)n3)cnnc12 [EX-12, N2-(3-chloro-4-morpholino-phenyl)-N4-(8-methyl-cinnolin-4-yl)-pyrimidine-2,4-diamine]
- Kinase Selectivity: ALK2 IC50/ ALK5 IC50 (ALK-5): (++) (10<ALK2/ALK5<100=[++])
- IC50 (ALK-5): < 0.01 µM
- IC50 [1, 4]: < 0.1 µM
- observed level of p-SMAD2 as percent of vehicle-only group ([2]; 100 mg/Kg): 45.5%
- phospho SMAD2 levels in tumor (normalized to GAPDH) [2]: reduced the phopho SMAD2 levels (p-SMAD2) in a dose dependent fashion
- inhibition at 10 mg/kg [2]: 19.9%
- inhibition at 50 mg/kg [2]: 35.8%
- inhibition at 75 mg/kg [2]: 40.1%
- inhibition at 100 mg/kg ([2]; 100 mg/Kg): 55.5%

Structure (SMILES): Cc1cc(F)cc2c(Nc3ccnc(Nc4ccc(N5CCN(C)CC5)cc4)n3)cnnc12 [EX-07, N4-(6-fluoro-8-methylcinnolin-4-yl)-N2-(4-(4-methylpiperazin-1-yl)phenyl)pyrimidine-2,4-diamine]
- Kinase Selectivity: ALK2 IC50/ ALK5 IC50 (ALK-5): (++) (10<ALK2/ALK5<100=[++])
- IC50 (ALK-5): < 0.01 µM
- IC50 [1, 4]: < 0.1 µM

Structure (SMILES): Cc1cccc2c(Nc3ccnc(Nc4ccc(N5CCN(C)CC5)nc4)n3)cnnc12 [EX-23, N4-(8-methylcinnolin-4-yl)-N2-(6-(4-methylpiperazin-1-yl)pyridin-3-yl)pyrimidine-2,4-diamine]
- Kinase Selectivity: ALK2 IC50/ ALK5 IC50 (ALK-5): (++) (10<ALK2/ALK5<100=[++])
- IC50 (ALK-5): < 0.01 µM
- IC50 [1, 4]: < 0.1 µM

Structure (SMILES): Cc1cccc2c(Nc3ccnc(Nc4ccc(N5CC6CCC(C5)N6C)cc4)n3)cnnc12 [EX-27, N2-(4-(8-methyl-3,8-diazabicyclo[3.2.1]octan-3-yl)phenyl)-N4-(8-methylcinnolin-4-yl)pyrimidine-2,4-diamine]
- Kinase Selectivity: ALK2 IC50/ ALK5 IC50 (ALK-5): (++) (10<ALK2/ALK5<100=[++])
- IC50 (ALK-5): < 0.01 µM
- IC50 [1, 4]: < 0.1 µM
